Key:
synaptic NMDA receptors [1] = experiment: Miniature EPSC analysis in CA1 pyramidal cells; assay type: cell-based, rat; details: APV 50 μM
Description: Miniature EPSCs (mEPSCs) were digitized at 10 KHz and the records were filtered with a digital Gaussian filter (−3 dB) with a cutoff frequency of 1 kHz. The mEPSCs were automatically detected and grouped based on an amplitude threshold of 10 pA and a rise time between 0 to 5 (fast rise time) and 5 to 10 ms (slow rise time); a small number of apparent mEPSCs with rise times slower than 10 ms were not studied further. Selected mEPSCs were scaled, averaged, and fitted with a sum of two exponential functions,
Response Amplitude(t)=Amplitude1exp(−time/τ1)+Amplitude2exp(−time/τ2).
If the first decay constant (τ1) and the second decay constant (τ2) were within 10%, the curve was subsequently refitted with a single exponential function. Both the frequency and the peak amplitude of detected events were analyzed. […] All data were acquired, stored, and analyzed using pClamp 8 (Axon Instruments, Foster City, Calif.) and Mini Analysis Program (Synaptosoft). […]
To investigate the effects of PAR1 activation on synaptic NMDA receptors in normal concentrations of Mg^2+ (1.5 mM), the inventors recorded spontaneous miniature excitatory postsynaptic currents (mEPSCs) at −60 mV in the presence of 0.5 μM TTX to look for changes in the amplitude and decay kinetics of individual synaptic currents.

CA1 pyramidal cells = experiment: Current clamp membrane potential of CA1 pyramidal cells in hippocampal slices; assay type: cell-based, rat; details: APV itself
Method: (§1) Young rats (Sprague-Dawley, age P15-P20) or mice (C57/B16, age P14-19) were deeply anesthetized with isoflurane and decapitated. The brain was rapidly removed and submerged in an ice-cold oxygenated artificial cerebrospinal fluid (ACSF) comprised of 130 mM NaCl, 24 mM NaHCO3, 3.5 mM KCl, 1.25 mM NaH2PO4, 1 mM CaCl2,3 mM MgCl2, and 10 mM glucose saturated with 95% O2/5% CO2, at pH 7.4.
The hemisected brain was glued onto the stage of a vibrating microtome (Leica VT1000 S) and sections of 300 μm thickness were cut and stored in an incubation chamber at room temperature for about 1 h before use. For voltage clamp experiments, the solution used to fill the electrodes was comprised of 140 mM Cs-MeSO4, 10 mM HEPES, 7 mM NaCl, 4 mM Mg-ATP, and 0.3 mM Na3-GTP; the solution for current clamp recordings was comprised of 140 mM K-MeSO4, 10 mM HEPES, 7 mM NaCl, 4 mM Mg-ATP, and 0.3 mM Na3-GTP, and supplemented with 1 mM QX314; and 1 mM QX314 was omitted from some current clamp recordings (e.g., FIG. 9e).
(§2) Slices were placed on the stage of an upright microscope underneath a platinum and nylon restraining grid, and superfused with oxygenated ACSF at room temperature (23° C.), some experiments are performed at 34° C. by a temperature controller (TC-344B, Warner, Hamden). The standard ACSF recording solution was comprised of 130 mM NaCl, 24 mM NaHCO3, 3.5 mM KCl, 1.25 mM NaH2PO4, 1.5 mM CaCl2, 1.5 mM MgCl2, and 10 mM glucose saturated with 95% O2/5% CO2, at pH 7.4. For some experiments 0.5-1 μM TTX, 10 μM NBQX, or 10-20 μM bicuculline were added to the extracellular solution, extracellular Mg^2+ was reduced to 5 μM, and/or extracellular Ca^2+ raised to 2 mM.
Visually guided whole-cell patch recordings were obtained from CA1 pyramidal neurons in a voltage clamp or current clamp configuration using an Axopatch 200A (Axon Instruments) and a borosilicate patch pipette of 5-7 MΩ resistance. […] Records were filtered at 5 kHz and digitized at 20 kHz using a Digidata 1200 A/D board.
Synaptic responses were evoked by applying 0.1 ms current injection (1-100 μA) to a bipolar stimulating electrode placed in the stratum radiatum. Thrombin (Calbiochem) concentration was determined as described by Gingrich et al. (2000) using conversion of 1 U/ml=10 nM. TFLLR and thrombin were applied by gravity perfusion at 1.0 ml/min, with extensive washing of perfusion lines, chamber, and objective between experiments to remove all residual thrombin, which has been reported to irreversibly cleave and PAR1 at a pM concentration. Removal of all thrombin ensured that PAR1 receptors were not pre-cleaved by residual thrombin prior to experimentation.

[2] = test system: NMDA receptor-mediated component of the EPSP; experiment: Current clamp EPSP recording in CA1 pyramidal cells; assay type: cell-based, rat; details: 50 μM APV
Method: as §1
The hemisected brain was glued onto the stage of a vibrating microtome (Leica VT1000 S) and sections of 300 μm thickness were cut and stored in an incubation chamber at room temperature for about 1 h before use. […]
(§3) Synaptic responses were evoked by applying 0.1 ms current injection (1-100 μA) to a bipolar stimulating electrode placed in the stratum radiatum. Thrombin (Calbiochem) concentration was determined as described by Gingrich et al. (2000) using conversion of 1 U/ml=10 nM. […]
A series of current clamp experiments were carried out to directly measure the effects of PAR1 activation on the NMDA receptor-mediated component of the EPSP recorded in the presence of 1.5 mM Mg^2+. […]

[3] = test system: PAR1−/− cortical neurons on wild-type astrocyte monolayer; experiment: PAR1−/− cortical neurons co-cultured on wild-type astrocytes: dendritic Ca2+ and voltage clamp; assay type: cell-based, mouse
Method: For an astrocyte-neuron co-culture, a monolayer of wild-type astrocytes was grown to 70-100% confluency (7-14 days in culture). Subsequently, the cortex from a P0 to P5 PAR1−/− mouse (Connolly et al., 1996) was dissected free of meninges and digested for 30 min in 1 mg/ml trypsin at 37° C. PAR1−/− mice were >99% C57B1/6 (>7 backcrossings), and wild-type mice were from a colony derived from PAR1−/− littermates.
All experiments were done within 3 generations of establishing the homozygous colony. The cortical cells were plated at low density on top of the monolayer of wild-type astrocytes obtained in above Example 1.1. Neurons were used for Ca^2+ imaging after 1-5 days in culture.
Whole-cell perforated-patch recording from cultured cortical neurons or HEK cells under voltage clamp (holding potential −60 mV) was made with an Axopatch 200B amplifier (Axon Instruments, Union City, Calif.). The recording chamber was continually perfused with a recording solution comprised of 150 mM NaCl, 3 mM KCl, 2 mM CaCl2, 5.5 mM glucose, and 10 mM HEPES (pH 7.4 by NaOH; osmolality adjusted to 315-320 mOsm with sucrose). Recording electrodes (4-7 MΩ) were filled with (in mM) 150 mM CsMeSO4, 10 mM NaCl, 0.5 CaCl2, 10 mM HEPES, and 25-50 μg/ml gramicidin D (pH adjusted to 7.3 with CsOH and osmolality adjusted to 310 mOsm with sucrose). It took 20-30 min to achieve acceptable perforation with series resistance ranging from 30-60 MΩ. All electrophysiological data from cultured neurons cells in this study were collected at room temperature (23-26° C.).
After a 20 min recovery, the bath perfusion was stopped and TFLLR was applied by brief (<1 sec) pressure ejection onto the astrocyte hosting the dye-loaded neuron in a static bath condition. Changes in fluorescence were monitored in a number of dendritic processes (schematized in FIGS. 8a and 8b).

synaptic NMDA receptors [4] = experiment: Evoked NMDA EPSC current-voltage relationship in CA1 pyramidal cells; assay type: cell-based, rat; details: 100 μM APV
Method: as §1
as §2, with “For some experiments 0.5-1 μM TTX, 10 μM NBQX, or 10-20 μM bicuculline were added to the extracellular solution, extracellular Mg^2+ was reduced to 5 μM, and/or extracellular Ca^2+ raised to 2 mM.” left out
as §3
EPSCs were evoked by electrical stimulation of Schaffer collateral axons in the CA1 stratum radiatum, and recorded from CA1 pyramidal neurons under voltage clamp. […]

SMILES: N[C@H](CCCP(=O)(O)O)C(=O)O [APV, D-2-amino-5-phosphono-valeric acid]
- effect on TFLLR-induced τ2 (synaptic NMDA receptors [1]): eliminated
- effect on resting membrane potential of CA1 neurons (CA1 pyramidal cells): 0.4±0.7 mV
- effect on TFLLR potentiation of EPSP area [2]: reversed
- peak amplitude of TFLLR-evoked current in presence of APV ([3]; 30 μM TFLLR, 50 μM APV): 2.5±0.3 pA
- effect on TFLLR-induced dendritic fluorescence increase ([3]; APV 50 μM): blocked
- effect on NMDA component of evoked EPSCs (synaptic NMDA receptors [4]): blocked

From US20080299109A1, “MECHANISM OF ASTRICYTE-NEURON SIGNALING” (Korea Institute of Science and Technology, priority 2007, published 2008)
